Source: ChEMBL document CHEMBL1157838, “Cryptosphaerolide, a cytotoxic Mcl-1 inhibitor from a marine-derived ascomycete related to the genus Cryptosphaeria” (J Nat Prod, 2010)
pIC50: −log10 of the molar value.

How the values were obtained:
HCT-116 = assay: Cytotoxicity against human HCT116 cells after 72 hrs by MTS/PMS assay; assay type: functional, cell-based; conditions: HCT-116, 72 h
[1] = molecular target: Induced myeloid leukemia cell differentiation protein Mcl-1 (Homo sapiens, UniProt Q07820); assay: Inhibition of Mcl1 protein by Mcl1/Bak fluorescence resonance assay
Induced myeloid leukemia cell differentiation protein Mcl-1, sequence (Q07820 whole entry): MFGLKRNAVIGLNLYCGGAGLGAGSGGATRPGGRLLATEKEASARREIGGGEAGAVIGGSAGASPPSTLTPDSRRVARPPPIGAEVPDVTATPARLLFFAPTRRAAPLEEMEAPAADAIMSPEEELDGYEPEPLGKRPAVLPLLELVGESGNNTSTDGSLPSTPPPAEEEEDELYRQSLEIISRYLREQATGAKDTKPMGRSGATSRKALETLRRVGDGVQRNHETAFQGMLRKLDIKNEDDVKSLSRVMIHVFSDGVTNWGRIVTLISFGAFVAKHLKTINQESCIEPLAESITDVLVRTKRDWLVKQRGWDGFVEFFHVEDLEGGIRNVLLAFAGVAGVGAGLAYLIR

| SMILES | pIC50 (HCT-116) | pIC50 [1] |
| --- | --- | --- |
| C=C1CO[C@@]2(O)[C@H]3O[C@]34[C@H](OC(=O)C(O)(CO)CC(C)CC(C)CC)CC[C@H](C)[C@@]4(C)C[C@@H]12 (stereo partly drawn) [CRYPTOSPHAEROLIDE] | 5.35 | 4.94 |
| C=C1CO[C@@]2(OC)[C@H]3O[C@]34[C@H](OC(=O)C(O)(CO)CC(C)CC(C)CC)CC[C@H](C)[C@@]4(C)C[C@@H]12 (stereo partly drawn) | – | 4.90 |
